Measurements: patent US20140336216A1, “PHYSIOLOGICAL LIGANDS FOR GPR139” (Janssen Pharmaceutica NV, priority 2013, published 2014)
“And” between values parts separate entries of the source, which are not always exact repeats. Equal entries are not always repeated. Where two headings read alike, the source gives them in different places.

How the values were obtained:
GO2Q alone = assay: GTPγS binding assay, control COS7 membranes expressing GO2Q alone (Ct-GO2Q); type: biochemical
Protocol: (§1) In order identify the ligands for GPR139 two improvements in the detection assay were made to allow for the ligands to be detected. First, we chose to use a GTPγS binding assay instead of using live cultured cells. The GTPγS binding assay is a cell free system that uses the cell membrane of the cell(s) of interest rather than the live cell(s). One advantage of this assay is that potential ligands present in the cell culture media are washed away when the cell membrane is prepared. This reduces the basal level of signal and increase the chance of detecting receptor ligands when assessing compounds that activate the receptor. Second, a GO2Q chimeric G-protein was created to be co-expressed with GPR139 in order to increase the signal-to-noise ratio in the GTPγS binding assay. Historically, the Gi, Go coupled GPCRs offer much greater signal-to-noise ratio in GTPγS binding studies. For Gs and Gq coupled GPCRs, although ligand-stimulated specific signals can be detected in a GTPγS binding assay, the signal-to-noise ratios are often very small. To address this a chimeric GO2-Gq chimeric G-protein, GO2Q, with the N-terminus from Go2 protein and the C-terminus from Gq protein.
(§2) To test for compounds that activate GPR139, different amino acids and their derivatives (Table 2) were tested as ligands in the GTPγS binding assay using cell membranes from COS7 cells co-expressing GPR139 and GO2Q. Cell membrane from COS7 cells expressing GO2Q alone or co-expressing other GPCRs were also tested in GTPγS binding assay in parallel as controls. Each compound was tested in triplicate.

GPR139 [1] = biological target: T1, GPR139 (Homo sapiens, UniProt Q6DWJ6); assay: GTPγS binding assay, single-concentration screen, COS7 membranes co-expressing GPR139 and GO2Q; type: biochemical; set-up: expressed in transfected cells; host or cells: COS7 (membranes); conditions: 1 mM final concentration; COS7 membranes co-expressing GPR139 and GO2Q; single wells of triplicate
T1 sequence (Q6DWJ6 1-353): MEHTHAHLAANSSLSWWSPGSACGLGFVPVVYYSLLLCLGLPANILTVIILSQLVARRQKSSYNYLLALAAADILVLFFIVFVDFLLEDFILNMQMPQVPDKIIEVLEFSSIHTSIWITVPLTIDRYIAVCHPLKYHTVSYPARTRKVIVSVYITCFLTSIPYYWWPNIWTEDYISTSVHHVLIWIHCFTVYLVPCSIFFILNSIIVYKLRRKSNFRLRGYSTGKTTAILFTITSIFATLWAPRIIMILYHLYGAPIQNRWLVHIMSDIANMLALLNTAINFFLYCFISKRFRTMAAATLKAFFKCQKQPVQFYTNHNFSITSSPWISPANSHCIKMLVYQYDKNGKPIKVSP
Protocol: as §1, §2

GPR139 [2] = biological target: T1, GPR139; assay: Calcium mobilization assay (FLIPR), GPR139 expressed in HEK293 cells; type: cell-based; set-up: expressed in transfected cells; host or cells: HEK293 (transient)
Protocol: FIG. 3A and FIG. 3B: Provides the results of experiments conducted to determine whether Trp and its derivatives (FIG. 3A) and Phe and its derivatives (FIG. 3B) stimulate Ca^2+ mobilization in HEK293 cells expressing GPR139.
The active compounds were also tested in a calcium mobilization assay (FLIPR® assay). For these experiments human GPR139 was transiently expressed in HEK293 cells and calcium mobilization was stimulated using L-Trp, L-Phe or their derivatives. […] The concentrations of L-Trp and L-Phe in many cell culture media (for instance DMEM is about 80 μM and 750 μM respectively) are close to the EC50 values of L-Trp and L-Phe for GPR139. […] This may explain why GPR139 appeared constitutively active when recombinantly expressed in mammalian cells.
About 300 additional phenylalanine analogues have been tested for GPR139 activation using a calcium mobilization (FLIPR®) assay. The results of these experiments indicate that many of these analogues can also activate GPR139. Table 4 lists certain phenylalanine analogues that have been determined to activate GPR139 by calcium mobilization at a concentration of 300 μM (calcium mobilization is expressed as percentage of that observed for L-phenylalanine).

[3] = 1 mM final concentration, COS7 membranes expressing GO2Q alone, single wells of triplicate
[4] = 300 μM, calcium mobilization as percentage of that observed for L-phenylalanine
[5] = HEK293, 300 μM, calcium mobilization as percentage of that observed for L-phenylalanine, read-out: % L-phenylalanine at 300 μM (average), calcium mobilization
[6] = HEK293, read-out: % L-phenylalanine at 300 μM (average), calcium mobilization

Compound | Emax at 300 µM (GPR139 [2]; [5]) [%] | also measured
NCCc1ccc(O)c(O)c1 [DA] |  | Activation levels (GTPγS binding), Ct-GO2Q (GO2Q alone; [3]): 2250 and 2213 and 2319; Activation levels of GPR139 (GTPγS binding), GPR139-GO2Q (GPR139 [1]): 2688 and 2825 and 2708
C[C@H](N)C(=O)O [Ala] |  | Activation levels (GTPγS binding), Ct-GO2Q (GO2Q alone; [3]): 1903 and 2049 and 2139; Activation levels of GPR139 (GTPγS binding), GPR139-GO2Q (GPR139 [1]): 2363 and 2348 and 2439
N[C@H](CCc1ccccc1)C(=O)O [d-Homo-phenylalanine] |  | % L-phenylalanine at 300 μM (average), calcium mobilization (GPR139 [2]; [4]): 105 % L-phenylalanine
N=C(N)NCCC[C@H](N)C(=O)O [Arg] |  | Activation levels (GTPγS binding), Ct-GO2Q (GO2Q alone): 2171 and 2131 and 2255; Activation levels of GPR139 (GTPγS binding), GPR139-GO2Q (GPR139 [1]): 2806 and 2783 and 2528
N[C@@H](Cc1cccc(F)c1)C(=O)O [3-Fluoro-L-phenylalanine] | 114 | 
C[C@](N)(Cc1ccc(F)cc1)C(=O)O [α-methyl-4-Fluoro-L-phenylalanine] | 125 | 
O=C(O)[C@@H]1C[C@@H](O)CN1 [HO-Pro] |  | Activation levels (GTPγS binding), Ct-GO2Q (GO2Q alone; [3]): 2166 and 2152 and 2189; Activation levels of GPR139 (GTPγS binding), GPR139-GO2Q (GPR139 [1]): 2825 and 2797 and 3109
NCCc1c[nH]cn1 [HA, histamine] |  | Activation levels (GTPγS binding), Ct-GO2Q (GO2Q alone; [3]): 2186 and 2204 and 2199; Activation levels of GPR139 (GTPγS binding), GPR139-GO2Q (GPR139 [1]): 2737 and 2863 and 2899
Cc1ccccc1C[C@H](N)C(=O)O [2-Methyl-L-phenylalanine] | 134 | 
N[C@H](Cc1ccc(F)c(F)c1)C(=O)O [3,4-Difluoro-D-phenylalanine] | 121 | 
N[C@H](C(=O)O)C(c1ccccc1)c1ccccc1 [3,3-Diphenyl-L-alanine] | 117 | 
NCC(=O)O [Gly] |  | Activation levels (GTPγS binding), Ct-GO2Q (GO2Q alone; [3]): 1936 and 2133 and 2289; Activation levels of GPR139 (GTPγS binding), GPR139-GO2Q (GPR139 [1]): 2560 and 2505 and 2414
N[C@@H](Cc1cccc(Cl)c1)C(=O)O [3-Chloro-L-phenylalanine] | 145 | 
Cc1ccc(C[C@H](N)C(=O)O)c(C)c1 [2,4-Dimethyl-L-phenylalanine] | 113 | 
N[C@@H](Cc1cccc(C(F)(F)F)c1)C(=O)O [3-Trifluoromethyl-L-phenylalanine] | 133 | 
N[C@@H](Cc1ccc(Cl)cc1Cl)C(=O)O [2,4-Dichloro-L-phenylalanine] | 122 | 
N#Cc1cccc(C[C@H](N)C(=O)O)c1 [3-Cyano-L-phenylalanine] | 115 | 
N[C@H](Cc1ccc(I)cc1)C(=O)O [4-Iodo-D-phenylalanine] | 125 | 
N[C@H](Cc1cccc([N+](=O)[O-])c1)C(=O)O [3-Nitro-D-Phenylalanin] | 164 | 
N[C@@H](Cc1ccccc1F)C(=O)O [2-Fluoro-L-phenylalanine] | 119 | 

Compound | Emax at 300 µM (GPR139 [2]; [5]) [%] | also measured
N[C@H](Cc1ccc(Cl)c(Cl)c1)C(=O)O [3,4-Dichloro-D-phenylalanine] | 149 | 
N[C@H](Cc1ccccc1Br)C(=O)O [2-Bromo-D-phenylalanine] | 135 | 
N[C@@H](Cc1ccc(Br)cc1)C(=O)O [4-Bromo-L-phenylalanine] |  | Emax at 300 µM (GPR139 [2]; [6]): 153%
N[C@H](Cc1ccc([N+](=O)[O-])cc1)C(=O)O [4-Nitro-D-phenylalanine] | 111 | 
S-(5-bromothienyl)-D-alanine |  | % L-phenylalanine at 300 μM (average), calcium mobilization (GPR139 [2]; [4]): 154 % L-phenylalanine
N[C@@H](Cc1ccc(Cl)c(Cl)c1)C(=O)O [3,4-Dichloro-L-phenylalanine] | 149 | 
CC(C)(C)OC(=O)N1Cc2ccccc2C[C@@H]1C(=O)O [(3R)-2-tert-butoxycarbony 1-3,4-dihydro-1H-isoquinoline-3-carboxylic acid] |  | % L-phenylalanine at 300 μM (average), calcium mobilization (GPR139 [2]; [4]): 155 % L-phenylalanine
CC(C)(C)c1ccc(C[C@H](N)C(=O)O)cc1 [4-tert-Butyl-L-phenylalanine] | 115 | 
COc1ccc(C[C@H](N)C(=O)O)cc1 [4-Methoxy-L-phenylalanine] | 128 | 
N[C@H](Cc1cc(F)cc(F)c1)C(=O)O [3,5-Difluoro-D-phenylalanine] | 102 | 
N[C@@H](Cc1ccc(I)cc1)C(=O)O [4-Iodo-L-phenylalanine] | 116 | 
N[C@@H](Cc1ccc(F)cc1)C(=O)O [4-Fluoro-L-phenylalanine] | 132 | 
N[C@H](Cc1c(F)c(F)c(F)c(F)c1F)C(=O)O [2,3,4,5,6-P entafluoro-D-phenylalanine] | 145 | 
N[C@@H](Cc1ccccc1Br)C(=O)O [2-Bromo-L-phenylalanine] | 168 | 
N[C@H](Cc1cccc(Cl)c1)C(=O)O [3-Chloro-D-phenylalanine] | 147 | 
N[C@H](Cc1ccc(Br)cc1)C(=O)O [4-Bromo-D-phenylalanine] |  | Emax at 300 µM (GPR139 [2]; [6]): 139%
N#Cc1cccc(C[C@@H](N)C(=O)O)c1 [3-Cyano-D-phenylalanine] | 93 | 
N[C@H](Cc1ccc(Cl)cc1)C(=O)O [4-Chloro-D-phenylalanine] | 110 | 
Cc1ccc(C[C@H](N)C(=O)O)cc1 [4-Methyl-L-phenylalanine] | 149 | 
N[C@@H](Cc1ccc([N+](=O)[O-])cc1[N+](=O)[O-])C(=O)O [2,4-Dinitro-L-phenylalanine] |  | Emax at 300 µM (GPR139 [2]; [6]): 95%

Compound | Emax at 300 µM (GPR139 [2]; [5]) [%] | also measured
N[C@@H](Cc1ccc(Br)s1)C(=O)O [2-(5-bromothienyl)-L-alanine] |  | % L-phenylalanine at 300 μM (average), calcium mobilization (GPR139 [2]; [4]): 151 % L-phenylalanine
N[C@@H](Cc1ccc(C(F)(F)F)cc1)C(=O)O [4-Trifluoromethyl-L-phenylalanine] | 150 | 
N[C@H](Cc1ccc(F)cc1)C(=O)O [4-Fluoro-D-phenylalanine] | 91 | 
N[C@@H](Cc1ccc(Cl)cc1)C(=O)O [4-Chloro-L-phenylalanine] | 146 | 
O=C(O)[C@@H]1Cc2c([nH]c3ccccc23)CN1 [L-1,2,3,4-tetrahydronorharman-3-carboxylic acid] |  | % L-phenylalanine at 300 μM (average), calcium mobilization (GPR139 [2]; [4]): 151 % L-phenylalanine
N[C@H](Cc1cccc(Br)c1)C(=O)O [3-Bromo-D-phenylalanine] | 172 | 
N[C@@H](Cc1cccc([N+](=O)[O-])c1)C(=O)O [3-Nitro-L-phenylalanine] | 131 | 
Cc1ccccc1C[C@@H](N)C(=O)O [2-Methyl-D-phenylalanine] | 109 | 
N[C@H](CCCc1ccccc1)C(=O)O [D-2-Amino-5-phenyl-pentanoic acid] | 129 | 
Cc1cccc(C[C@@H](N)C(=O)O)c1 [3-Methyl-D-phenylalanine] | 150 | 
N[C@@H](Cc1cccc(Br)c1)C(=O)O [3-Bromo-L-phenylalanine] | 167 | 
N[C@H](Cc1cccc(F)c1)C(=O)O [3-Fluoro-D-phenylalanine] | 94 | 
Cc1cccc(C[C@H](N)C(=O)O)c1 [3-Methyl-L-phenylalanine] | 147 | 
N[C@H](Cc1ccc(Cl)cc1Cl)C(=O)O [2,4-Dichloro-D-phenylalanine] | 135 | 
S-Nitro-L-phenylalanine |  | % L-phenylalanine at 300 μM (average), calcium mobilization (GPR139 [2]; [4]): 150 % L-phenylalanine
N[C@@H](Cc1ccccc1C(F)(F)F)C(=O)O [2-Trifluoromethyl-L-phenylalanine] | 110 | 
Cc1ccc(C[C@@H](N)C(=O)O)c(C)c1 [2,4-Dimethyl-D-phenylalanine] | 101 | 
Cc1ccc(C[C@@H](N)C(=O)O)cc1 [4-Methyl-D-phenylalanine] | 102 | 
